Assay results: PubChem BioAssay AID1259411 (Chemical Carcinogenesis Research Information System (CCRIS), 2018)
Active and inactive are the calls of the source. How the calls were made is not given here.

Test system: rodent carcinogenicity bioassays, tumor incidence
Test: CCRIS carcinogenicity studies
Method in brief: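 Archive of carcinogenicity, mutagenicity, tumor promotion and tumor inhibition results drawn from journals, NCI reports and other sources, expert-reviewed; covers 1985-2011 and is no longer updated.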

Measured: carcinogen call

CCN(N=O)C(N)=O
active: Species: HAMSTER, Strain/Sex: SYRIAN/FEMALE, Route: GAVAGE, Dose: 0, 12 MG/ML ((0.2 ML OF A SOLUTION IN ETHYL ACETATE/CORN OIL (1:2)) 1/WK FOR 20 WK (STUDY DURATION: LIFE SPAN), Tumor Site: Type of Lesion: SPLEEN: HEMANGIOSARCOMA, FORESTOMACH: SQUAMOUS CELL CARCINOMA OR PAPILLOMA active; positive | Species: HAMSTER, Strain/Sex: SYRIAN/MALE, Route: GAVAGE, Dose: 0, 12 MG/ML ((0.2 ML OF A SOLUTION IN ETHYL ACETATE/CORN OIL (1:2)) 1/WK FOR 20 WK (STUDY DURATION: 20 WK), Tumor Site: Type of Lesion: SPLEEN: HEMANGIOSARCOMA, FORESTOMACH: SQUAMOUS CELL CARCINOMA OR PAPILLOMA active; positive | Species: HAMSTER, Strain/Sex: SYRIAN/MALE, Route: INTRAPERITONEAL, Dose: 60, 274 MG/KG IN SODIUM CHLORIDE/SODIUM CITRATE ONCE, Tumor Site: Type of Lesion: FORESTOMACH: SQUAMOUS CELL PAPILLOMA active; positive | Species: MOUSE, Route: INTRAPERITONEAL, Tumor Site: Type of Lesion: LIVER, KIDNEY, OVARIES, LUNG, HARDERIAN GLAND, LYMPHATIC SYSTEM, STOMACH, Tumor Site: Type of Lesion: LIVER, KIDNEY, OVARIES, LUNG, HARDERIAN GLAND, LYMPHATIC SYSTEM, STOMACH active; positive | Species: MOUSE, Route: SUBCUTANEOUS, Tumor Site: Type of Lesion: LIVER, LUNG, LYMPHATIC SYSTEM, Tumor Site: Type of Lesion: LIVER, LUNG, LYMPHATIC SYSTEM active; positive | Species: RAT, Route: INTRAPERITONEAL, Tumor Site: Type of Lesion: LYMPHATIC SYSTEM: LYMPHOMA, HEMATOPOIETIC SYSTEM (LEUKEMIA) active; positive | Species: RAT, Route: INTRAVENOUS, Tumor Site: Type of Lesion: BRAIN, NERVOUS SYSTEM (PERIPHERAL), HEMATOPOIETIC SYSTEM (LEUKEMIA), UTERUS, VAGINA, Tumor Site: Type of Lesion: BRAIN, NERVOUS SYSTEM (PERIPHERAL), HEMATOPOIETIC SYSTEM (LEUKEMIA), UTERUS, VAGINA active; positive | Species: RAT, Route: ORAL, Tumor Site: Type of Lesion: BRAIN, NERVOUS SYSTEM (PERIPHERAL), HEMATOPOIETIC SYSTEM (LEUKEMIA), Tumor Site: Type of Lesion: BRAIN, NERVOUS SYSTEM (PERIPHERAL), HEMATOPOIETIC SYSTEM (LEUKEMIA) active; positive | Species: RAT, Route: PRE-NATAL EXPOSURE, Tumor Site: Type of Lesion: NERVOUS SYSTEM active; positive | Species: RAT, Route: SUBCUTANEOUS, Tumor Site: Type of Lesion: BRAIN, NERVOUS SYSTEM (PERIPHERAL) active; positive | Species: RAT, Strain/Sex: F344/FEMALE, Route: GAVAGE, Dose: 0, 6, 12 MG/ML (TOTAL DOSE 0; 0.4; 0.8 MMOL) IN 2 ML ETHYL ACETATE AND CORN OIL (1:2) 2/WK FOR 20 WK (STUDY DURATION: LI, Dose: 0, 6, 12 MG/ML (TOTAL DOSE 0; 0.4; 0.8 MMOL) IN 2 ML ETHYL ACETATE AND CORN OIL (1:2) 2/WK FOR 20 WK (STUDY DURATION: LI, Tumor Site: Type of Lesion: FORESTOMACH: SQUAMOUS CELL CARCINOMA, LUNG: TUMOR, MAMMARY GLAND: TUMOR, Tumor Site: Type of Lesion: FORESTOMACH: SQUAMOUS CELL CARCINOMA, LUNG: TUMOR, MAMMARY GLAND: TUMOR active; positive | Species: RAT, Strain/Sex: F344/FEMALE, Route: GAVAGE, Dose: 0, 6, 12 MG/ML IN 0.2 ML ETHYL ACETATE AND CORN OIL 2/WK FOR 20 WK (STUDY DURATION: LIFESPAN), Dose: 0, 6, 12 MG/ML IN 0.2 ML ETHYL ACETATE AND CORN OIL 2/WK FOR 20 WK (STUDY DURATION: LIFESPAN), Tumor Site: Type of Lesion: FORESTOMACH: TUMOR, LUNG: TUMOR, MAMMARY GLAND: TUMOR, UTERUS: TUMOR, ZYMBAL GLAND: TUMOR, Tumor Site: Type of Lesion: FORESTOMACH: TUMOR, LUNG: TUMOR, MAMMARY GLAND: TUMOR, UTERUS: TUMOR, ZYMBAL GLAND: TUMOR active; positive | Species: RAT, Strain/Sex: F344/FEMALE, Route: INTRAVESICULAR, Dose: 0, 1.2 MG 2/WK FOR 20 WK (STUDY DURATION: LIFETIME), Tumor Site: Type of Lesion: BLADDER: TUMOR active; positive | Species: RAT, Strain/Sex: F344/FEMALE, Route: INTRAVESICULAR, Dose: 0, 2.4 MG 2/WK FOR 14 WK (STUDY DURATION: LIFETIME), Tumor Site: Type of Lesion: BLADDER: TUMOR active; positive | Species: RAT, Strain/Sex: F344/FEMALE, Route: ORAL, Dose: 0, 0.3, 1, 3, 10 PPM IN DRINKING WATER FOR 104 WK (STUDY DURATION: 111 WK), Dose: 0, 0.3, 1, 3, 10 PPM IN DRINKING WATER FOR 104 WK (STUDY DURATION: 111 WK), Tumor Site: Type of Lesion: BRAIN: GLIOMA, UTERUS: ENDOMETRIAL STROMAL POLYP, MAMMARY GLAND: ADENOCARCINOMA, HEMATOPOIETIC SYSTEM: MONONUCLEAR CELL, Tumor Site: Type of Lesion: BRAIN: GLIOMA, UTERUS: ENDOMETRIAL STROMAL POLYP, MAMMARY GLAND: ADENOCARCINOMA, HEMATOPOIETIC SYSTEM: MONONUCLEAR CELL active; positive
